This note sets out measurements from patent EP4663632A1, “COMPOUNDS USEFUL FOR THE MODULATION OF THE ACTIVITY OF STING” (Sulis Therapeutics ApS, priority 2024, dated 2025).

SMILES strings stand for the structures. Some results are limits rather than exact numbers.

Assay [1] has as its target T1, STING (Homo sapiens, UniProt Q86WV6). Nature of the assay: Inhibition of STING-agonist-induced IFN-β release in H596 cells (H596 STING inhibition assay). As to conditions: 24h with compound, then 0.3 µM GSK STING agonist, 6h; ELISA. Format: cell-based. The protocol:
Cell supernatants were analysed for IFN-β release using DuoSet human IFN-β ELISA (R&D systems, DY-814) following manufactures protocol except using 96-well, half-volume plates from Corning and subsequently use half volume for all steps throughout the protocol. In brief, plates were coated o/n with a 130x dilution of capturing antibody in PBS. Wells were washed 3x with PBS-T20 followed by blocking with 1% BSA diluted in TBS-T20 for 1h. Wells were washed 3x with PBS-T20 and standards (n=2) and samples (n=3) were added to the plate and incubated for 2h at rt. Wells were washed 3x with PBS-T20 and detection antibody diluted 1:60 in 1% BSA in PBS was added to each well and incubated for 2h at rt. Plates were washed 3x with PBS-T20 and Streptavidin-HRP diluted 1:40 in 1% BSA in PBS was added pr well and incubated for 30 min at rt. The wells were washed 4x with PBS-T20 and TMB One Substrate (Promega) was added and incubated for 5-10 min in the dark. When fully developed, 1 mmol/L Sulfuric acid was added to stop the reaction. Signals were measured using BioTek Synergy H1 plate reader at 450nm and 570nm (reference).
Raw data values were quantified based on the standard curve using blank subtracted Δ450nm-570nm values generated using the Gen5 software connected to the plate reader. Concentrations were plotted into GraphPad Prism to calculate EC50 values using a 4-parameter non-linear regression fitting curve, bottom constrains set for >0.
To determine cellular effects of test compounds, we assessed inhibition of STING-agonist-induced IFN-β release in H596 cells (ATCC, HTB-178). Cells were seeded at a density of 25.000 cells/well in 96-well Nunclon Delta surface treated culture plate in RPMI-1640 growth medium (supplemented with 10% FBS, 1% Pen-strep). Cells were incubated over-night at 37°C 5% CO2 to allow adhesion. Next morning growth medium was renewed and a 10x concentration, 3-step dilution series of test compounds diluted in growth medium (5% DMSO) were added to the appropriate well. Final DMSO concentration was 0.5%. Cells were further incubated for 24h followed by incubation with a 10x concentration of GSK STING agonist (CAS number: 2138299-34-8), final concentration was 0.3 µM. Cells culture plates were further incubated, and supernatants were harvested after 6h and immediately stored at -20°C until determination of IFN-β release.
For ELISA and data analysis, the methods described above for HFF-1 cells were applied.
In general terms: In an ELISA, binding on a coated surface is turned into a signal by an enzyme label.

Assay [2] deals with T1, STING. Nature of the assay: Western Blot analysis for STING degradation in H596 cells. It is filed as cell-based. The following applies: 24h; reference protein beta-actin. As for the experimental part: (§1) For cell lysing for Western Blot analysis cell culture plates were brought to ice, supernatant was removed by aspiration and cells washed 2x in ice-cold DPBS. Cells were lysed in 65 µL of RIPA buffer supplemented with cOmplete ULTRA Tablets protease inhibitor cocktail, PIERCE Phosphatase inhibitor mini tablet, Benzonase and 10mM NaF for 20 min on ice. Lysates were collected, cleared by centrifugation (13000xg for 10 min at 4°C). Samples were either analysed directly or stored at -80°C until analysis.
(§2) For Western Blotting, total protein concentration in each lysate was determined using PIERCE Gold BCA Assay kit according to manufactures protocol. 6 µg of total protein was mixed with 2x Laemmli buffer containing DTT, boiled for 5 min at 95°C, cooled on ice and loaded into each well of a 4-20% Criterion TGX gel. Proteins were separated by electrophoresis, by running for 1h at 150V. After separation proteins were blotted onto a PVDF membrane by semi-dry transfer using Trans-Blot turbo system at pre-defined BioRad MIDI protocol; 25V, 1A (fixed) for 30 min. Membranes were blocked for 1h in 5% skim milk in TBS-T20 on a rocker at room temperature followed by washing and exposure to primary antibodies against human STING 1:1000 (Cell Signalling, #13647) or loading controls Vinculin 1:1000 (Cell Signalling, #13901) or beta-Actin 1:10000 (Sigma, A5441) all diluted in 5% BSA in TBS-T20. Membranes were probed over night at 4°C on a rocker. Membranes were washed 3x in TBS-T20 followed by exposure to secondary HRP-conjugated anti-rabbit antibody or HRP-conjugated anti-mouse antibody diluted 1:10000 in 5% skim milk in TBS-T20 as appropriate. Membranes were incubated for 1h at room temperature on a rocker, then washed 3x in TBS-T20.
(§3) For generating DC50 values, the intensity of individual bands was measured using imaged and expression levels were calculated as a ratio of STING intensities vs. Reference protein intensities and normalized to DMSO control. The normalized ratios were plotted on a XY curve in GraphPad Prism where DC50 was estimated using a 4-parameter non-linear regression fitting curve.
To assess STING degradation in H596 cells (ATCC, HTB-178) cells were seeded at a density of 100.000 cells/well in 24-well Nunclon Delta surface treated culture plate in RPMI-1640 growth medium (supplemented with 10% FBS, 1% Pen-strep). Cells were incubated over-night at 37°C 5% CO2 to allow adhesion. Next day growth medium was renewed and a 5x concentration of test compounds (2.5% DMSO) diluted in growth medium were added to the appropriate well. Final DMSO concentration was 0.5%. Cell culture plates were returned to the incubator for additional 24h. Final test compound concentrations were 0.22 µM, 0.67 µM, 2 µM and 6 µM.
For cell lysis, western blotting and data analysis, the methods described above for HFF-1 cells were applied.
In general terms: Immunoblotting shows a protein as a band on a membrane.

The target in assay [3] is C-terminal domain (CTD) of human STING (Homo sapiens, UniProt Q86WV6). Nature of the assay: STING binding FP assay III. More on the design: recombinant human STING protein (155-379). The following applies: 10 nM STING (FP assay III according to the text); read-out: STING binding FP assay II, IC50. The method, boiled down:
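FP competition assay using 10 nM recombinant human STING (155-379) and 4 nM fluorescein-labelled STING ligand in 150 mM NaCl, 50 mM HEPES pH 7.5, 1 mM DTT with Tween-20. Plates were incubated 20 min at room temperature and read at Ex 485/Em 528 nm. IC50 values came from four-parameter fits.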

Assay [4] has as its target T1, STING. Nature of the assay: Western Blot analysis for STING degradation (DC50) in HFF-1 cells. It is filed as cell-based. Details: host or cells: HFF-1 human foreskin fibroblasts. As to conditions: 24h; reference protein vinculin. As for the experimental part:
To assess STING degradation in human foreskin fibroblasts HFF-1 cells (ATCC, SCRC-1041) cells were seeded at a density of 60.000 cells/well in 24-well Nunclon Delta surface treated culture plate in DMEM growth medium (supplemented with 10% FBS, 1% Pen-strep). Cells were incubated over-night at 37°C 5% CO2 to allow adhesion. Next day growth medium was renewed and a 5x concentration of test compounds (2.5% DMSO) diluted in growth medium were added to the appropriate well. The final DMSO concentration were 0.5%. Cell culture plates were returned to the incubator for additional 24h.
as §1, §2, §3

T1 sequence (Q86WV6 whole entry): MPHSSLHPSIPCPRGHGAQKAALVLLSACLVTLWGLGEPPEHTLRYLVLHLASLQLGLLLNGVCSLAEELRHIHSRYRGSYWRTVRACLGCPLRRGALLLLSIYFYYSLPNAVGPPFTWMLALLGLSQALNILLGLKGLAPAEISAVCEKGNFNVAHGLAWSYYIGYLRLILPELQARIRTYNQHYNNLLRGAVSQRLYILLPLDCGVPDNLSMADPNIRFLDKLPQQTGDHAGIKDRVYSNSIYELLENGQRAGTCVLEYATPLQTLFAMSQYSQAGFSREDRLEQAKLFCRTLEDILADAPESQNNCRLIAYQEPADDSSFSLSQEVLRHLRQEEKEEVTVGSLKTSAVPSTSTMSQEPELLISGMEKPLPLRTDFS
C-terminal domain (CTD) of human STING, sequence (Q86WV6 155-379): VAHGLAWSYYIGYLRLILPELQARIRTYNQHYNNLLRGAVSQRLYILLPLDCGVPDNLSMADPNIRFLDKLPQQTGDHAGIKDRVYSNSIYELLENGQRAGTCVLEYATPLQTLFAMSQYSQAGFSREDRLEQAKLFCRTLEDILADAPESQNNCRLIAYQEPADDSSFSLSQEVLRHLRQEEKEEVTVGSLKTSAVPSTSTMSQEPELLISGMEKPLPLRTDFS

Usually EC50 stands for the concentration needed to bring the measured effect to its halfway point. As usually defined, the DC50 is the concentration at which degradation of the target reaches its halfway point. A word on the IC50: it is the concentration at which inhibition is half-maximal. Take `CCn1nc(C)cc1C(=O)N=c1n(C)c2cc(C(N)=O)ccc2n1CCC(CCn1c(=NC(=O)c2cc(C)nn2CC)n(C)c2cc(C(N)=O)ccc21)OCC(=O)NCCOCCOCCOCCOCCC(=O)N1CCN(C(=O)CCC(=O)NCCCCOc2cc(-c3scnc3C)ccc2CNC(=O)[C@@H]2C[C@@H](O)CN2C(=O)[C@@H](NC(=O)C2(F)CC2)C(C)(C)C)CC1` (stereo partly drawn) [Example 19]: the EC50 on STING [1] was under 0.2 µM. The same compound showed a DC50 at STING [2] of under 0.2 µM. Further, the IC50 in assay [3] is 0.0071 µM.

With `CCn1nc(C)cc1C(=O)N=c1n(C)c2cc(C(N)=O)ccc2n1CCC(CCn1c(=NC(=O)c2cc(C)nn2CC)n(C)c2cc(C(N)=O)ccc21)OCC(=O)NCCOCCOCCOCCOCCC(=O)NCCCCC(=O)N[C@H]1C[C@@H](C(=O)N[C@@H]2CCCc3ccccc32)N(C(=O)[C@@H](NC(=O)[C@H](C)NC)C2CCCCC2)C1` (stereo partly drawn) [Example 10], on STING [1], the EC50 was in the range of 0.2 to 1 µM. For the same compound, in assay [3], the IC50 came to 0.0045 µM. The same compound came in with a DC50 at STING [4] of under 0.2 µM.

Turning to `CCn1nc(C)cc1C(=O)N=c1n(C)c2cc(C(N)=O)ccc2n1CCC(CCn1c(=NC(=O)c2cc(C)nn2CC)n(C)c2cc(C(N)=O)ccc21)OCC(=O)NCCOCCOCCOCCOCCC(=O)N1CCN(C(=O)CCOCCC(=O)NCCCCOc2cc(-c3scnc3C)ccc2CNC(=O)[C@@H]2C[C@@H](O)CN2C(=O)[C@@H](NC(=O)C2(F)CC2)C(C)(C)C)CC1` (stereo partly drawn) [Example 20], the EC50 at STING [1] is under 0.2 µM. Also, on STING [2], the DC50 was under 0.2 µM. Moreover, the IC50 in assay [3] was 0.0027 µM.
